The source of these data is PMC12974487, “Inhibition of FicD-mediated AMPylation and deAMPylation by isoprenoid diphosphates” (Proceedings of the National Academy of Sciences of the …, 2026).

Where “and” joins values, the source holds several entries; their conditions need not be identical. Equal entries are not always repeated. Where two headings read alike, the source gives them in different places.

For assay [1], the target named is T1, FicD^L258D (Homo sapiens, UniProt Q9BVA6, L258D).
T1 construct: soluble ER luminal domain (residues 105 to 458) of wild-type human FicD and three mutants; 6xHis-Sumo (N, cleaved yes); made in house; host or cells: Rosetta(DE3) E. coli
T1 sequence (Q9BVA6 105-458 L258D): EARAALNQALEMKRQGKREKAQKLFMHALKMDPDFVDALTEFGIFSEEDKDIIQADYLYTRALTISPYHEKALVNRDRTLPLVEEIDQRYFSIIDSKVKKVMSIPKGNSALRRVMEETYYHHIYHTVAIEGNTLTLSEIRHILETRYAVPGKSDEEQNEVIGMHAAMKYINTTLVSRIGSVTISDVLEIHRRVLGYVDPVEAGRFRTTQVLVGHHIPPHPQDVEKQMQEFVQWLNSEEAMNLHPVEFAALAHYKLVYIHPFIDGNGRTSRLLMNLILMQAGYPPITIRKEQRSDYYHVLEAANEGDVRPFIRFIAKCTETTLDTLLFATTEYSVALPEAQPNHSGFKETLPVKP
The assay can be described thus: Differential scanning fluorimetry (DSF) thermal shift with FicD^L258D. In kind it is binding. The conditions noted are these: FicD^L258D, 5 mM MgCl2; read-out: EC50 of DSF dose-response (ΔTm). The method, then:
Differential Scanning Fluorimetry
Thermal shift assays were performed in Biorad CfX384 Touch Real-Time PCR Detection System […]
Reactions contained 50mM HEPES pH 7.4, 200mM NaCl, 200mM KCl, 200uM DTT, 5X Invitrogen Sypro Orange (Cat no. S6650), 8-9μM protein, and indicated nucleotide, cofactor, or small molecule in a total volume of 20uL. For every experiment ‘no protein’ controls were also included with the same reaction conditions. All reactions were performed in technical triplicates. Sealed plates containing reaction mixes were centrifuged for 1-5 min at 1000 RPM prior to temperature scanning (FRET channel), which was performed from 6°C […]
DSF data was analyzed with traditional methods automated in a Python package (https://pypi.org/project/instawell/). Briefly, for each temperature, the RFU values of technical triplicates are averaged. For each timepoint, the background fluorescence was subtracted using the RFU values of the ‘no protein’ control. […]
calculated. The melting temperature (Tm) is defined as the first derivative peak value. Data

In assay [2] the target is T1, FicD^L258D. The experiment in a line: Isothermal titration calorimetry (ITC) with Δ104hFicD^L258D. Type of assay: binding. The following applies: 4 mM MgCl2, 20 °C, 1σ error interval in parenthesis. The text has this: To further support this notion, we used Isothermal Titration Calorimetry (ITC) to determine the Kd of FPP binding. […] In these experiments, the interaction between FPP and Mg^2+ generated endothermic peaks that interfered with detecting the interaction between FPP, Mg^2+, and FicD (Fig. 3, Upper). The stoichiometry of FPP binding to FicD was consistently <0.85, which may indicate that Mg^2+ was not saturating. Because the endothermic interaction between Mg^2+ and FPP limited the quantity of MgCl2 we could add, the measured Kd could be larger than the true value.
Fig. 3. ITC with FicD and Farnesyl-pyrophosphate. Representative ITC thermogram for FPP binding to Δ104hFicD^L258D (Upper). […] Dissociation constants (Kd) of individual replicates and global fitting of triplicate isotherms are reported with 1σ error intervals in parenthesis. TEXT PRINTED IN THE PICTURE: no label printed: Kd (nM): 32.3 (15.6, 54.9) (Replicate 1); Kd (nM): 25.6 (10.1, 47.7) (Replicate 2); Kd (nM): 45.2 (29.4, 68.8) (Replicate 3); Kd (nM): 60.3 (23.1, 126.3) (Global) DOUBTS OF THE COPYIST ABOUT THIS PICTURE: The picture prints no substance label; the table rows are replicates and a global fit of one measurement, so all four Kd values are given under one unlabeled substance. […]
Isothermal Titration Calorimetry
Proteins were dialyzed against 25mM HEPES pH 7.4/100mM KCl/10% glycerol prior to titration.
Dialyzed proteins were then spun down at 21,000G for 15 minutes at 4C to remove trace insoluble material. The protein concentration was measured spectrophotometrically and then diluted to working concentration with 25mM HEPES pH 7.4/100mM KCl/10% glycerol. MgCl2 was added to proteins to a final concentration of 4mM. ITC experiments were performed in a Micro-Cal PEAQ-ITC (Malvern Panalytical, Worcestershire, UK) calorimeter with a stirred 206.2 μL reaction cell held at 20 °C. 250μM FPP was titrated into 25uM Δ104hFicL258D with 750rpm stirring. The first injection was 0.5 μL, followed by twenty 1.9 μL injections. ITC data were integrated and baseline corrected using NITPIC 2.1.5 (10, 11). Integrated data was globally analyzed in SEDPHAT 15.b (12) using a model considering a single class of binding sites. […]
10% Lithium dodecyl sulfate, 50% glycerol, 50mM DTT, 0.05% Bromophenol blue) and then heated […]
For deAMPylation assays with FicD and BiP, Δ26hBiPT229A was in-vitro AMPylated by […]
5mM MgCl2, 500uM ATP, 0.5% CHAPS, 1mM DTT. After one hour of incubation at 30-37C, the entire reaction mix was transferred into an Amicon 0.5mL 50kDa MWCO concentrator (cat no.
7.4/150mM NaCl/10% glycerol/1mM DTT was added to the concentrated AMPylation reaction and then spun down again at 14,000 x g at 4C for 5-10 minutes. This step was repeated four times to buffer exchange AMPylated Δ26hBiPT229A.
Δ104hFicDWT and Δ26hBiPT229A-AMP were combined at a ratio of 1:80 in buffer containing 25mM HEPES pH 7.4, 100mM KCl, 5mM MgCl2, 1mM DTT and the indicated small molecule where applicable. Reactions were incubated at 37C for 1 hour and stopped by the addition EDTA. 5X SDS sample buffer (250mM Tris pH 6.8, 10% Lithium dodecyl sulfate, 50% glycerol, 50mM DTT, 0.05% Bromophenol blue) was then added to the reactions and reactions were heated for 5 minutes at […]
For in-vitro AMPylation assays with VopS and CDC42, Δ30VopS and GST-CDC42 – provided by a previous lab member – were combined at a 1:80 molar ratio in 50mM Tris pH 7.4/100mM NaCl/1mM DTT in the presence of GPP or FPP, where applicable. […]

With `CC(C)=CCC/C(C)=C/CC/C(C)=C/CO[P@@](=O)(O)OP(=O)(O)O` (stereo in doubt) [FPP, farnesyl-pyrophosphate], the EC50 in assay [1] was found to be 9600 nM. Besides, the Kd in assay [2] (read-out: Kd (ITC), Replicate 1) is 32.3 nM; in assay [2] (read-out: Kd (ITC), Replicate 2), 25.6 nM; in assay [2] (read-out: Kd (ITC), Replicate 3) it was 45.2 nM; in assay [2] (read-out: Kd (ITC), global fitting of triplicate isotherms), ~60 nM and 60.3 nM and 60 nM.
